US7195885B2, “Hepatitis C virus assays” (Bristol-Myers Squibb Company, priority 2002, dated 2007)

Key:
[1] = tested on: HCV replicon cell line (NS3 protease activity); assay: HCV replicon FRET assay (NS3 protease activity as indirect measure of HCV RNA replication)
Experimental: The HCV replicon cell line was isolated from colonies as described by Lohman et al. al. (Lohman, supra) and used for all experiments.
These cell lines were maintained at 37° C., 5% CO2, 100% relative humidity in DMEM (Life Technologies #11965-084) with 10% heat inactivated calf serum (Sigma #F-2442), 100 U/ml of penicillin/streptomycin (Life Technologies #15140-122), Geneticin at 1 mg/ml (Life Technologies #10131-027). One of the cell lines which had approximately 3,000 copies of HCV replicon RNA/cell was used for development of the assay.
To perform the HCV FRET screening assay, 96-well cell culture plates were used.
The assay reagent was made as follows: 5× cell Luciferase cell culture lysis reagent from Promega (#E153A) diluted to 1× with dH2O, NaCl added to 150 mM final, the FRET peptide diluted to 20 uM final from a 2 mM stock. Cells were trypsinized, placed into each well of a 96-well plate and allowed to attach overnight. The next day, the test compounds were added to columns 1 through 10; column 11 was media only, and column 12 contained a titration of interferon as a control (1000 units for A12, B12, 100 units for C12, D12, 10 units for E12, F12 and 1 unit for G12, H12). In addition, replicon cells in A12, B12 can be replaced, if desired, with naïve Huh-7 cells as a negative background control. The plates were then placed back in the incubator.
Subsequent to addition of the test compounds described above (FRET Assay Preparation), at various times the plate was removed and Alamar Blue solution (Trek Diagnostics, #00–100) was added per well as a measure of cellular toxicity.
Compound analysis was determined by quantification of the relative HCV replicon inhibition and the relative cytotoxicity values.

[2] = tested on: HCV replicon cell line (Huh-7); assay: Alamar Blue cytotoxicity assay step; format: cell-based
[3] = tested on: HCV replicon cell line (HCV RNA); assay: Quantitative RT-PCR of HCV RNA in the HCV replicon cell line
[4] = tested on: HCV replicon cell line (NS3 protein); assay: Western analysis of NS3 protein in the HCV replicon cell line; format: cell-based, Hepatitis C virus
Experimental: Experiments were done in duplicate. Western analysis was performed according to the instructions for Amershams Chemiluminescence Immunology Kit (NEL105 Renaissance) using a Molecular Dynamics Storm 860 phosphoimager and associated software. The primary and secondary antibody dilutions were at 1 to 5,000. Antisera was generated by immunizing rabbits with purified NS3 protease made from an E. Coli expression vector encoding the first 181 amino acids of HCV 1a NS3 with subsequent boosts.
Bleeds were tested weekly and boosts continued until a positive signal on a control western was seen. Secondary antibody was a BioRad (#170–6515) Goat anti-Rabbit IgG HRP Conjugate. The protein samples for western analysis were from the same wells used for the FRET assay and were prepared by the addition of an equal volume of 2×SDS-PAGE buffer to the FRET assay mixture, heating and loading on a 10% gel for SDS-PAGE. Interferon alpha (IFN-α) was obtained from Sigma (#I-4276) and stored as recommended.

[5] = FIG. 6A, titration 0.1 to 1,000 units per milliliter, 96 hours of incubation
[6] = interferon titration in HCV replicon cell line

Substance: interferon-α [IFN-α]
- EC50, FRET [1, 5]: 2.9 units of IFN-α per milliliter
- EC50, FRET assay [1, 6]: 2.9 units
- EC50 in IFN-α control samples of the compound plate, in words ([1]; random compound plate control titration 1000, 100, 10, 1 units, FIG. 7A): close to or slightly lower than the lowest concentration of IFN-α used
- cytotoxicity (Alamar Blue) ([2]; highest concentration of IFN-α, 1000 units, FIG. 7B wells A12 and B12): Approximately 18%
- cytotoxicity (Alamar Blue), in words ([2]; lower concentrations of IFN-α (below 1000 units)): no apparent Alamar Blue staining change
- EC50, RT-PCR [3, 5]: 5.3 units of IFN-α per milliliter
- EC50, qRT-PCR assay [3, 6]: 5.3 units
- EC50, Western [4, 5]: 1.9 units of IFN-α per milliliter
- EC50, western assay [4, 6]: 1.9 units
